Assay results as given in ChEMBL document CHEMBL5512659, “Structure optimizing of flavonoids against both MRSA and VRE” (Eur J Med Chem, 2024).
Converted amounts (≈) assume the structure as drawn. The source made the active and inactive calls. The calls are words filed in the database; no cut-off is given here.

What was measured:
Cell membrane [1] = assay: Disruption of membrane permeability in multidrug resistant Enterococcus faecalis ATCC 51299 assessed as nucleic acid leakage at 2 to 4 times MIC
Enterococcus faecalis [2] = assay: Bactericidal activity against multidrug resistant Enterococcus faecalis ATCC 51299 assessed as inhibition of bacterial growth by measuring ratio of MBC to MIC; format: functional
Staphylococcus aureus [3] = assay: Antibiofilm activity in methicillin resistant Staphylococcus aureus clinical isolate 003 assessed as inhibition of biofilm formation at 4 times MIC by crystal violet staining based analysis relative to control; format: functional
Staphylococcus aureus [4] = assay: Antibiofilm activity in methicillin resistant Staphylococcus aureus clinical isolate 003 assessed as reduction in biofilm density at 0.5 to 4 times MIC measured after 24 hrs by inverted fluorescence microscopic analysis; format: functional, organism-based
Enterococcus faecalis [5] = assay: Antibacterial activity against multidrug resistant Enterococcus faecalis ATCC 51299 in presence of peptidoglycan; format: functional, organism-based
Cell membrane [6] = assay: Disruption of membrane permeability in methicillin resistant Staphylococcus aureus clinical isolate 003 assessed as increase in ROS accumulation at 2 to 4 times MIC measured after 1 hr
Cell membrane [7] = assay: Induction of membrane damage in multidrug resistant Enterococcus faecalis ATCC 51299 assessed as deformation of bacterial surface at 2 to 4 times MIC by SEM analysis; format: cell membranes
Staphylococcus aureus [8] = assay: Antibacterial activity against methicillin resistant Staphylococcus aureus clinical isolate 003 in presence of peptidoglycan; format: functional, organism-based
Cell membrane [9] = assay: Induction of cell membrane damage in multidrug resistant Enterococcus faecalis ATCC 51299 assessed as increase in red fluorescence at 2 to 4 times MIC by PI staining based analysis; format: cell membranes
Cell membrane [10] = assay: Induction of membrane depolarization in multidrug resistant Enterococcus faecalis ATCC 51299 assessed as increase in fluorescence intensity at 2 to 4 times MIC by DiSC3(5) dye based analysis
Staphylococcus aureus [11] = assay: Bactericidal activity against methicillin-resistant Staphylococcus aureus clinical isolate 003 assessed as inhibition of bacterial growth by measuring ratio of MBC to MIC; format: functional
Enterococcus faecalis [12] = assay: Antibiofilm activity in multidrug resistant Enterococcus faecalis ATCC 51299 assessed as biofilm clearance rate at 4 times MIC by crystal violet staining based analysis relative to control; format: functional
Cell membrane [13] = assay: Disruption of membrane permeability in methicillin resistant Staphylococcus aureus clinical isolate 003 assessed as increase in malondialdehyde level
Enterococcus faecalis [14] = assay: Antibacterial activity against multidrug resistant Enterococcus faecalis ATCC 51299; format: functional
Staphylococcus aureus [15] = assay: Antibacterial activity against methicillin-resistant Staphylococcus aureus clinical isolate 003 at 2 to 4 times MIC measured after 8 to 12 hrs by time-kill assay; format: functional, organism-based; conditions: time 8-12 hrs
Cell membrane [16] = assay: Disruption of membrane permeability in methicillin resistant Staphylococcus aureus clinical isolate 003 assessed as nucleic acid leakage at 2 to 4 times MIC
Cell membrane [17] = assay: Disruption of membrane permeability in methicillin resistant Staphylococcus aureus clinical isolate 003 assessed as protein leakage at 2 to 4 times MIC
Staphylococcus aureus [18] = assay: Antibiofilm activity in methicillin resistant Staphylococcus aureus clinical isolate 003 assessed as destruction of biofilm integrity at 0.5 to 4 times MIC measured after 24 hrs by inverted fluorescence microscopic analysis; format: functional, organism-based
Enterococcus faecalis [19] = assay: Antibacterial activity against Enterococcus faecalis clinical isolate 7; format: functional
Cell membrane [20] = assay: Induction of membrane damage in multidrug resistant Enterococcus faecalis ATCC 51299 assessed as rupture of bacterial surface at 2 to 4 times MIC by SEM analysis; format: cell membranes
Enterococcus faecalis [21] = assay: Antibacterial activity against multidrug resistant Enterococcus faecalis ATCC 51299 in presence of cardiolipin; format: functional, organism-based
Staphylococcus aureus [22] = assay: Antibacterial activity against Staphylococcus aureus clinical isolate 31; format: functional
Cell membrane [23] = assay: Disruption of membrane permeability in multidrug resistant Enterococcus faecalis ATCC 51299 assessed as increase in ROS accumulation at 2 to 4 times MIC measured after 1 hr
Cell membrane [24] = assay: Induction of cell membrane damage in methicillin resistant Staphylococcus aureus clinical isolate 003 assessed as increase in green fluorescence at 2 to 4 times MIC by SYTOX Green dye based analysis; format: cell membranes
Cell membrane [25] = assay: Induction of membrane depolarization in methicillin resistant Staphylococcus aureus clinical isolate 003 assessed as increase in fluorescence intensity at 2 to 4 times MIC by DiSC3(5) dye based analysis
Cell membrane [26] = assay: Disruption of membrane permeability in methicillin resistant Staphylococcus aureus clinical isolate 003 assessed as increase in fluorescence intensity at 4 to 8 times MIC by PI staining based analysis
Enterococcus faecalis [27] = assay: Antibacterial activity in multidrug resistant Enterococcus faecalis ATCC 51299 at sub-MIC measured after 20 passages; format: functional, organism-based
Enterococcus faecalis [28] = assay: Antibacterial activity against Enterococcus faecalis clinical isolate 13; format: functional
Staphylococcus aureus [29] = assay: Antibacterial activity against methicillin resistant Staphylococcus aureus clinical isolate 003 in presence of phosphatidylglycerol; format: functional, organism-based
Enterococcus faecalis [30] = assay: Antibiofilm activity in multidrug resistant Enterococcus faecalis ATCC 51299 assessed as reduction in biofilm density at 0.5 to 4 times MIC measured after 24 hrs by inverted fluorescence microscopic analysis; format: functional, organism-based
Cell membrane [31] = assay: Disruption of membrane permeability in multidrug resistant Enterococcus faecalis ATCC 51299 assessed as increase in malondialdehyde level
Cell membrane [32] = assay: Disruption of membrane permeability in multidrug resistant Enterococcus faecalis ATCC 51299 assessed as protein leakage at 2 to 4 times MIC; format: cell membranes
Enterococcus faecalis [33] = assay: Antibacterial activity against multidrug resistant Enterococcus faecalis ATCC 51299 in presence of phosphatidylethanolamine; format: functional, organism-based
Staphylococcus aureus [34] = assay: Antibacterial activity in methicillin resistant Staphylococcus aureus clinical isolate 003 at sub-MIC measured after 20 passages; format: functional, organism-based
Staphylococcus aureus [35] = assay: Antibacterial activity against methicillin resistant Staphylococcus aureus clinical isolate 003 in presence of cardiolipin; format: functional, organism-based
Enterococcus faecalis [36] = assay: Antibiofilm activity in multidrug resistant Enterococcus faecalis ATCC 51299 assessed as inhibition of biofilm formation at 4 times MIC by crystal violet staining based analysis relative to control; format: functional
Cell membrane [37] = assay: Induction of cell membrane damage in methicillin resistant Staphylococcus aureus clinical isolate 003 assessed as increase in red fluorescence at 2 to 4 times MIC by PI staining based analysis; format: cell membranes
Staphylococcus aureus [38] = assay: Antibiofilm activity in methicillin resistant Staphylococcus aureus clinical isolate 003 assessed as biofilm clearance at 0.5 to 4 times MIC by crystal violet staining based analysis; format: functional, organism-based
Enterococcus faecalis [39] = assay: Antibacterial activity against multidrug resistant Enterococcus faecalis ATCC 51299 at 2 to 4 times MIC measured after 8 to 12 hrs by time-kill assay; format: functional, organism-based; conditions: time 8-12 hrs
Cell membrane [40] = assay: Disruption of membrane permeability in multidrug resistant Enterococcus faecalis ATCC 51299 assessed as increase in fluorescence intensity at 4 to 8 times MIC by PI staining based analysis
Staphylococcus aureus [41] = assay: Antibacterial activity against methicillin resistant Staphylococcus aureus clinical isolate 003; format: functional
Staphylococcus aureus [42] = assay: Antibacterial activity against methicillin resistant Staphylococcus aureus clinical isolate 031; format: functional
Staphylococcus aureus [43] = assay: Antibiofilm activity in methicillin resistant Staphylococcus aureus clinical isolate 003 assessed as biofilm clearance rate at 4 times MIC by crystal violet staining based analysis relative to control; format: functional
Staphylococcus aureus [44] = assay: Antibacterial activity against methicillin resistant Staphylococcus aureus clinical isolate 011; format: functional

In the case of `CCCCCCc1c(-c2ccc(OCC(=O)CN[C@H](CCCNC(=N)N)C(=O)OC)cc2OCC(=O)CN[C@H](CCCNC(=N)N)C(=O)OC)oc2cc(OC)cc(O)c2c1=O`, the Activity (Cell membrane [1]) is reported as “Active”, the Ratio (Enterococcus faecalis [2]) is reported as <4 and the “inhibition (INH)” value (Staphylococcus aureus [3]) is reported as >90%. For the same compound, the Activity (Staphylococcus aureus [4]) was “Dose-Dependent Effect”, the Activity (Enterococcus faecalis [5]) was “Active” and the Activity (Cell membrane [6]) was “Active”. For the same compound, the Activity (Cell membrane [7]) was “Active”, the Activity (Staphylococcus aureus [8]) was “Active” and the Activity (Cell membrane [9]) was “Active”. The Activity (Cell membrane [10]) was “Dose-Dependent Effect”, the Ratio (Staphylococcus aureus [11]) was <4 and the Activity (Enterococcus faecalis [12]) was ~80%. The Activity (Cell membrane [13]) was “Active”, the MIC (Enterococcus faecalis [14]) was 32 µg/mL (≈ 36.8 µM) and the Activity (Staphylococcus aureus [15]) was “Active”. For the same compound, the Activity (Cell membrane [16]) was “Active”, the Activity (Cell membrane [17]) was “Active” and the Activity (Staphylococcus aureus [18]) was “Dose-Dependent Effect”. The MIC (Enterococcus faecalis [19]) was 64 µg/mL (≈ 73.6 µM), the Activity (Cell membrane [20]) was “Active” and the Activity (Enterococcus faecalis [21]) was “inactive”. The MIC (Staphylococcus aureus [22]) was 1 µg/mL (≈ 1.15 µM), the Activity (Cell membrane [23]) was “Active” and the Activity (Cell membrane [24]) was “Active”. The Activity (Cell membrane [25]) was “Dose-Dependent Effect”, the Activity (Cell membrane [26]) was “Active” and the Activity (Enterococcus faecalis [27]) was “Active”. For the same compound, the MIC (Enterococcus faecalis [28]) was 32 µg/mL (≈ 36.8 µM), the Activity (Staphylococcus aureus [29]) was “inactive” and the Activity (Enterococcus faecalis [30]) was “Dose-Dependent Effect”. For the same compound, the Activity (Cell membrane [31]) was “Active”, the Activity (Cell membrane [32]) was “Active” and the Activity (Enterococcus faecalis [33]) was “inactive”. For the same compound, the Activity (Staphylococcus aureus [34]) was “Active”, the Activity (Staphylococcus aureus [35]) was “inactive” and the “inhibition (INH)” value (Enterococcus faecalis [36]) was >90%. The Activity (Cell membrane [37]) was “Active”, the Activity (Staphylococcus aureus [38]) was “Dose-Dependent Effect” and the Activity (Enterococcus faecalis [39]) was “Active”. The Activity (Cell membrane [40]) was “Active”, the MIC (Staphylococcus aureus [41]) was 1 µg/mL (≈ 1.15 µM) and the MIC (Staphylococcus aureus [42]) was 2 µg/mL (≈ 2.3 µM). It also gave an Activity (Staphylococcus aureus [43]) of ~80% and an MIC (Staphylococcus aureus [44]) of 1 µg/mL (≈ 1.15 µM).
